Measured values reported in patent US20080234262A1 (Wyeth, priority 2007, published 2008).

Assays:
PI3K = PI3K (Homo sapiens, UniProt P42336); test: Fluorescence polarization assay for PI3K; assay type: biochemical; settings: PI3Kα; read-out: PI3Kα IC50;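 also: PI3K kinase reaction on PIP2 with ATP, 30-60 min, product sensed by GST-GRP with red probe in fluorescence polarization (mP), controls without enzyme and at zero time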
prostate line LNCap = test: In vitro cell culture growth assay (MTS), LNCap; assay type: cell-based, human; settings: LNCap cells, three days after drug treatment;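 also: viable cell density read by absorbance at 490 nm, growth expressed as percent of vehicle-treated cells on the same plate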
breast line MDA468 = test: In vitro cell culture growth assay (MTS), MDA468; assay type: cell-based, human; settings: MDA468 cells, three days after drug treatment
In short: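 Steps: plate cells; add inhibitors the next day; incubate 3 days; add MTS dye, which viable cells convert metabolically; measure absorbance at 490 nm; calculate percent of control growth relative to vehicle-treated cells in the same plate.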

Sequence of PI3K (P42336 whole entry): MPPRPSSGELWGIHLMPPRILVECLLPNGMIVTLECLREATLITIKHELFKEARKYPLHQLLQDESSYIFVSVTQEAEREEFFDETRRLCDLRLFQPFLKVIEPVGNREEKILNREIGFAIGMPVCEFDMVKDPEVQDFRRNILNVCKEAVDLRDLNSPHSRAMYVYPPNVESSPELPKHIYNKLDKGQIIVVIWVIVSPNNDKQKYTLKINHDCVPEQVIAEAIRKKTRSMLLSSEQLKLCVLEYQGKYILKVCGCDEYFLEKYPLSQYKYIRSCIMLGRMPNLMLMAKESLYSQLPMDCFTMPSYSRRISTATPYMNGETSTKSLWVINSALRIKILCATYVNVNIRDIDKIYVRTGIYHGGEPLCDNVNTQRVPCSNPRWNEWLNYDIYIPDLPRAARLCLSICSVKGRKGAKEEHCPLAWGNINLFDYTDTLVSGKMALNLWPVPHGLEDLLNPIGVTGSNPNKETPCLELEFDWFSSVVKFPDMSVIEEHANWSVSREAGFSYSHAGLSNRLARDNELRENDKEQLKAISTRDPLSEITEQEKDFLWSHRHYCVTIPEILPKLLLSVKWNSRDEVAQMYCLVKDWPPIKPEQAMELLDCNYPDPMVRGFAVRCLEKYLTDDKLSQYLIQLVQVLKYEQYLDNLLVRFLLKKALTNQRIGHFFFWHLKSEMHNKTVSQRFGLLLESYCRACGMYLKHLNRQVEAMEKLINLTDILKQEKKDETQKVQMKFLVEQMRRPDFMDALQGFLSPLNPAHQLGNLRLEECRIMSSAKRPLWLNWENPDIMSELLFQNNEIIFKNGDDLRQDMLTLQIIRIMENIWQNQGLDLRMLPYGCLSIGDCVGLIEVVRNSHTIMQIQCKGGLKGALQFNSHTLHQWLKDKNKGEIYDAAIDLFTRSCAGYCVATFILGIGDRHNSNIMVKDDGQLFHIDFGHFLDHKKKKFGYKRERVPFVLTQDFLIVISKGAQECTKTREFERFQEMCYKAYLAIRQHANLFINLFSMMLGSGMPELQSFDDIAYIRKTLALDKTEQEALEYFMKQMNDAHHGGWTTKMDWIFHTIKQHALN
Sequence of PI3K (P27986 whole entry partner): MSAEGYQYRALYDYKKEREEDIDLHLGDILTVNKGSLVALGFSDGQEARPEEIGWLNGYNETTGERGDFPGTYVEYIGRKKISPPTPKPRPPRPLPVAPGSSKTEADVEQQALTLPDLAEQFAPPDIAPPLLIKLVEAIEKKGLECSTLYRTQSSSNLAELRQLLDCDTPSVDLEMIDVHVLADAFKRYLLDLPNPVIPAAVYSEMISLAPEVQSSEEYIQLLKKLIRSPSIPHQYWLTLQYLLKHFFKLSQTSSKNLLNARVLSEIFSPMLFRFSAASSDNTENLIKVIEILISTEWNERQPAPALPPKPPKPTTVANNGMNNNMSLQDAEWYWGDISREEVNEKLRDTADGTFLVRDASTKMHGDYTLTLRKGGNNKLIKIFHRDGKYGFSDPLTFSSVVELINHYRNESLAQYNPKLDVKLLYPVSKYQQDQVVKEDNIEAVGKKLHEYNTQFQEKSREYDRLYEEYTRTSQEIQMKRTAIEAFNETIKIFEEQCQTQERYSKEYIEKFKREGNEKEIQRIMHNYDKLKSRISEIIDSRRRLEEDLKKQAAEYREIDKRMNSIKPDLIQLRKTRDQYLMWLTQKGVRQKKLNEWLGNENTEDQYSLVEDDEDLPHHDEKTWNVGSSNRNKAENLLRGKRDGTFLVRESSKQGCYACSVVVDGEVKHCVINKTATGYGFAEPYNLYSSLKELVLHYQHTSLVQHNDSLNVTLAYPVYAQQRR

Row | Compound | IC50 (PI3K) [nM] | IC50 (prostate line LNCap; Homo sapiens, LNCaP, 72 h) [nM] | IC50 (prostate line LNCap) [nM] | IC50 (breast line MDA468; Homo sapiens, 72 h) [nM] | IC50 (breast line MDA468) [nM]
1 | COc1cc(-c2nc(N3CCOCC3)c3cnn(C4CCN(Cc5ccccc5)CC4)c3n2)ccc1N [Compound 181] | 2480 | 1500 | – | 5500 | –
2 | COC(=O)N1CCC(n2ncc3c(N4CCOCC4)nc(-c4ccc(NC(=O)OCCN5CCN(C)CC5)cc4)nc32)CC1 [Compound 907, methyl 4-{6-[4-({[2-(4-methylpiperazin-1-yl)ethoxy]carbonyl}amino)phenyl]-4-morpholin-4-yl-1H-pyrazolo[3,4-d]pyrimidin-1-yl}piperidine-1-carboxylate] | 1850 | 5500 | – | 7000 | –
3 | Clc1ccc(-c2nc(N3CCOCC3)c3cnn(C4CCN(Cc5ccccc5)CC4)c3n2)cn1 [Compound 156] | 450 | 3300 | – | 35000 | –
4 | Cc1cc(NC(=O)Nc2ccc(-c3nc(N4CCOCC4)c4cnn(C5CCN(C(=O)OC(C)(C)C)CC5)c4n3)cc2)on1 [Compound 883, tert-butyl 4-[6-(4-{[(3-methylisoxazol-5-yl)carbamoyl]amino}phenyl)-4-morpholin-4-yl-1H-pyrazolo[3,4-d]pyrimidin-1-yl]piperidine-1-carboxylate] | 160 | 270 | – | 1300 | –
5 | NC(=O)CN1CCC(n2ncc3c(N4CCOCC4)nc(-c4ccc5[nH]ccc5c4)nc32)CC1 [Compound 245, 2-{4-[6-(1H-indol-5-yl)-4-morpholin-4-yl-1H-pyrazolo[3,4-d]pyrimidin-1-yl]piperidin-1-yl}acetamide] | 2660 | 800 | – | 2800 | –
6 | NC(=O)Nc1ccc(-c2nc(N3CCOCC3)c3cnn(C4CCN(C(=O)c5cccnc5)CC4)c3n2)cc1 [Compound 546, 1-(4-{4-morpholin-4-yl-1-[1-(pyridin-3-ylcarbonyl)piperidin-4-yl]-1H-pyrazolo[3,4-d]pyrimidin-6-yl}phenyl)urea] | 178 | 3000 | – | 1800 | –
7 | O=C(Nc1cccnc1)Nc1ccc(-c2nc(N3CCOCC3)c3cnn(C4CCN(Cc5cccnc5)CC4)c3n2)cc1F [Compound 618, 1-(2-fluoro-4-{4-morpholin-4-yl-1-[1-(pyridin-3-ylmethyl)piperidin-4-yl]-1H-pyrazolo[3,4-d]pyrimidin-6-yl}phenyl)-3-pyridin-3-ylurea] | 54 | 40 | – | 150 | –
8 | COC(=O)N1CCC(n2ncc3c(N4CCOCC4)nc(-c4ccc(NC(=O)Nc5ccncc5F)cc4)nc32)CC1 [Compound 864, methyl 4-[6-(4-{[(3-fluoropyridin-4-yl)carbamoyl]amino}phenyl)-4-morpholin-4-yl-1H-pyrazolo[3,4-d]pyrimidin-1-yl]piperidine-1-carboxylate] | 116 | 27.4 | – | 98 | –
9 | CCNC(=O)Nc1ccc(-c2nc(N3CCOCC3)c3cnn(C4CCN(Cc5cccnc5)CC4)c3n2)cc1 [Compound 563, 1-ethyl-3-(4-{4-morpholin-4-yl-1-[1-(pyridin-3-ylmethyl)piperidin-4-yl]-1H-pyrazolo[3,4-d]pyrimidin-6-yl}phenyl)urea] | 187 | < 27 | – | 27 | –
10 | CN1CCC(C(=O)Nc2ccc(-c3nc(N4CCOCC4)c4cn[nH]c4n3)cc2)CC1 [Compound 284, 1-methyl-N-[4-(4-morpholin-4-yl-1H-pyrazolo[3,4-d]pyrimidin-6-yl)phenyl]piperidine-4-carboxamide] | 885 | 5300 | – | 22000 | –
11 | CC(C)OC(=O)Nc1ccc(-c2nc(N3CCOCC3)c3cnn(C4CCN(Cc5ccccc5)CC4)c3n2)cc1 [Compound 208] | 3790 | 5800 | – | 11000 | –
12 | c1cc2cc(-c3nc(N4CCOCC4)c4cnn(CCN5CCCCC5)c4n3)ccc2[nH]1 [Compound 125] | 9750 | 4400 | – | 7300 | –
13 | COC(=O)Nc1ccc(-c2nc(N3CCOCC3)c3cnn(C4CCN(CC(=O)c5ccccc5)CC4)c3n2)cc1 [Compound 457, methyl (4-{4-morpholin-4-yl-1-[1-(2-oxo-2-phenylethyl)piperidin-4-yl]-1H-pyrazolo[3,4-d]pyrimidin-6-yl}phenyl)carbamate] | 585 | 500 | – | 1800 | –
14 | O=C(Nc1ccc(-c2nc(N3CCOCC3)c3cnn(C4CCN(Cc5ccccc5)CC4)c3n2)cc1)NN1CCCC1 [Compound 537, 1-{4-[1-(1-benzylpiperidin-4-yl)-4-morpholin-4-yl-1H-pyrazolo[3,4-d]pyrimidin-6-yl]phenyl}-3-pyrrolidin-1-ylurea] | 4230 | 3000 | – | 10000 | –
15 | O=C(Nc1ccccc1)Nc1ccc(-c2nc(N3CCOCC3)c3cnn(C4CCN(CC(F)(F)F)CC4)c3n2)cc1 [Compound 789, 1-(4-{4-morpholin-4-yl-1-[1-(2,2,2-trifluoroethyl)piperidin-4-yl]-1H-pyrazolo[3,4-d]pyrimidin-6-yl}phenyl)-3-phenylurea] | 18 | 100 | – | 900 | –
16 | COC(=O)Nc1ccc(-c2nc(N3CCOCC3)c3cnn(C4CCN(C(=O)N5CCN(C)CC5)CC4)c3n2)cc1 [Compound 448, methyl [4-(1-{1-[(4-methylpiperazin-1-yl)carbonyl]piperidin-4-yl}-4-morpholin-4-yl-1H-pyrazolo[3,4-d]pyrimidin-6-yl)phenyl]carbamate] | 725 | 900 | – | 1700 | –
17 | 1-(4-{1-[1-(methoxymethyl)piperidin-4-yl]-4-morpholin-4-yl-1H-pyrazolo[3,4-d]pyrimidin-6-yl}phenyl)-3-methylurea [Compound 796] | 1560 | – | 22000 | – | 30000
18 | CNC(=O)Nc1ccc(-c2nc(N3CCOCC3)c3cnn(C4CCN(Cc5cccc(O)c5)CC4)c3n2)cc1 [Compound 642, 1-(4-{1-[1-(3-hydroxybenzyl)piperidin-4-yl]-4-morpholin-4-yl-1H-pyrazolo[3,4-d]pyrimidin-6-yl}phenyl)-3-methylurea] | 28 | – | 140 | – | 420

Continued, in another order:

Row | IC50 (PI3K) [nM] | IC50 (prostate line LNCap; Homo sapiens, LNCaP, 72 h) [nM] | IC50 (prostate line LNCap) [nM] | Compound | IC50 (breast line MDA468; Homo sapiens, 72 h) [nM] | IC50 (breast line MDA468) [nM]
19 | 76 | 45 | – | CNC(=O)Nc1ccc(-c2nc(N3CCOCC3)c3cnn(C4CCN(C(=O)c5cccc(C(F)(F)F)c5)CC4)c3n2)cc1 [Example 359, 1-methyl-3-[4-(4-morpholin-4-yl-1-{1-[3-(trifluoromethyl)benzoyl]piperidin-4-yl}-1H-pyrazolo[3,4-d]pyrimidin-6-yl)phenyl]urea] | 200 | –
20 | 25 | 27 | – | CNC(=O)Nc1ccc(-c2nc(N3CCOCC3)c3cnn(C4CCN(Cc5ccc(C)cc5)CC4)c3n2)cc1 [Example 431, 1-methyl-3-(4-{1-[1-(4-methylbenzyl)piperidin-4-yl]-4-morpholin-4-yl-1H-pyrazolo[3,4-d]pyrimidin-6-yl}phenyl)urea] | 100 | –
21 | 55 | 45 | – | CNC(=O)Nc1ccc(-c2nc(N3CCOCC3)c3cnn(C4CCN(C(=O)c5ccc(OC)cc5)CC4)c3n2)cc1 [Example 363, 1-(4-{1-[1-(4-methoxybenzoyl)piperidin-4-yl]-4-morpholin-4-yl-1H-pyrazolo[3,4-d]pyrimidin-6-yl}phenyl)-3-methylurea] | 400 | –
22 | 438 | 27 | – | O=C(Nc1ccc(-c2nc(N3CCOCC3)c3cnn(C4CCN(Cc5cccnc5)CC4)c3n2)cc1)NC1CC1 [Example 405, 1-cyclopropyl-3-(4-{4-morpholin-4-yl-1-[1-(pyridin-3-ylmethyl)piperidin-4-yl]-1H-pyrazolo[3,4-d]pyrimidin-6-yl}phenyl)urea] | 100 | –
23 | 514 | 355 | – | COC(=O)Nc1ccc(-c2nc(N3CCOCC3)c3cnn(C4CCN(C(=O)c5cccnc5)CC4)c3n2)cc1 [Example 213, methyl (4-{4-morpholin-4-yl-1-[1-(pyridin-3-ylcarbonyl)piperidin-4-yl]-1H-pyrazolo[3,4-d]pyrimidin-6-yl}phenyl)carbamate] | 1200 | –
24 | 357 | 370 | – | O=C(Nc1ccc(-c2nc(N3CCOCC3)c3cnn(C4CCN(C(=O)c5cccnc5)CC4)c3n2)cc1)NC1CC1 [Example 415, 1-cyclopropyl-3-(4-{4-morpholin-4-yl-1-[1-(pyridin-3-ylcarbonyl)piperidin-4-yl]-1H-pyrazolo[3,4-d]pyrimidin-6-yl}phenyl)urea] | 700 | –
25 | 1580 | 900 | – | CCOC(=O)Nc1ccc(-c2nc(N3CCOCC3)c3cnn(C4CCN(C(=O)c5ccccc5)CC4)c3n2)cc1 [Example 383, Ethyl {4-[1-(1-benzoylpiperidin-4-yl)-4-morpholin-4-yl-1H-pyrazolo[3,4-d]pyrimidin-6-yl]phenyl}carbamate] | 4300 | –
26 | 382 | 3000 | – | CNC(=NC#N)Nc1ccc(-c2nc(N3CCOCC3)c3cnn(C4CCN(C(=O)c5cccnc5)CC4)c3n2)cc1 [Example 412, 2-cyano-1-methyl-3-(4-{4-morpholin-4-yl-1-[1-(pyridin-3-ylcarbonyl)piperidin-4-yl]-1H-pyrazolo[3,4-d]pyrimidin-6-yl}phenyl)guanidine] | 6000 | –
27 | 53 | 27 | – | CNC(=O)Nc1ccc(-c2nc(N3CCOCC3)c3cnn(C4CCN(C(=O)c5cccc(Cl)c5)CC4)c3n2)cc1 [Example 358, 1-(4-{1-[1-(3-chlorobenzoyl)piperidin-4-yl]-4-morpholin-4-yl-1H-pyrazolo[3,4-d]pyrimidin-6-yl}phenyl)-3-methylurea] | 100 | –
28 | 1.75 | 47 | – | CCn1nc(C#CCO)c2c(N3CCOCC3)nc(-c3ccc(NC(=O)Nc4cccnc4)cc3)nc21 [Compound 956, 1-{4-[1-ethyl-3-(3-hydroxyprop-1-yn-1-yl)-4-morpholin-4-yl-1H-pyrazolo[3,4-d]pyrimidin-6-yl]phenyl}-3-pyridin-3-ylurea] | 90 | –
